Laboratory results published in PMC10352257, “In vivo effects of the alpha-synuclein misfolding inhibitor minzasolmin supports clinical development in Parkinson’s disease” (NPJ Parkinson's Disease, 2023).
Entries after “also recorded” stand apart in the source; their conditions may differ.

Columns and labels:
Format in all cases: in vivo, mouse
GFAP = assay: Immunolabeling of glial fibrillary acidic protein (GFAP), 3-month study; details: for change in GFAP immunolabeling vs vehicle-treated Line 61 transgenic mice: cortex and hippocampus (P < 0.0001); for GFAP immunolabeling, mean: 3 months, adjusted P <0.0001
Excerpt: (§1) A transgenic mouse model of Parkinson’s disease overexpressing human wild-type ASYN under the murine Thy-1 promoter on a mixed C57Bl/6 background was used in the present studies (commonly referred to Line 61)[49]. The Line 61 transgenic mouse model of Parkinson’s disease develops extensive accumulation of ASYN in areas relevant to Parkinson’s disease[49]–[51], neurodegeneration (as evidenced by loss of tyrosine hydroxylase[52],[53] and dopamine transporter immunoreactivity[18] in the striatum), inflammation, and both motor and non-motor functional deficits. Multiple cohorts of mice were transferred from the University of California, San Diego to a Neuropore-funded AAALAC-accredited vivarium facility per a laboratory service agreement between Neuropore Therapies, Inc. and the laboratory of Dr. Eliezer Masliah under institutional animal care and use committee (IACUC) Protocol S02221. All in vivo testing was conducted by Neuropore personnel under Explora Biosciences animal care and use protocol (ACUP) number E15-016-2. Three-month-old male transgenic and age-matched non-transgenic littermate control mice were used and housed up to 5 per cage. Animals received free access to food and water prior to the experiment. The vivarium ambient room temperature was monitored daily and kept within a range of 68–72 degrees Fahrenheit. Animals were kept on a 12:12 diurnal light cycle, with lights on at 0600.
(§2) Minzasolmin was dissolved in a vehicle solution consisting of 40% Captisol (CyDex Pharmaceuticals, Inc.; Kansas, USA) in sterile water and administered at a volume of 0.1 ml/20 g of body weight. Animals received a Monday–Friday daily intraperitoneal injection of vehicle, or 1 or 5 mg/kg minzasolmin for approximately 90 days. Animals received treatment up to and including a final injection 1 h prior to euthanasia. All study solutions were blind coded and experimenters were blinded to genotype and treatment group assignments for the duration of the study, ex vivo evaluations (i.e., neuropathology sample processing and imaging, videotape scoring) and through penultimate data analyses (i.e., data quality control with documented exclusions prior to unblinding; unblinding required for a priori pairwise comparisons).
(§3) All subjects were euthanized within 1 h of the last treatment and brain and blood were collected. Tissue processing and imaging methods were conducted as described previously[17],[18],[52] and performed under a lab service agreement between UCSD and Neuropore Therapies. All samples were blind coded to genotype and treatment group throughout immune-histological processing and imaging. The right hemibrain was post-fixed in phosphate-buffered 4% paraformaldehyde (pH 7.4) at 4 °C for 48 and then serially sectioned into […] thick […] sections using a vibratome. Sections were free-floated and incubated overnight at 4 °C with primary antibodies. To confirm the specificity of primary antibodies, control experiments were performed in which sections were incubated overnight in the absence of primary antibody, pre-immune serum, or primary antibody pre-adsorbed for 48 h with 20-fold excess of the corresponding peptide. Tissue collection, processing, and imaging methods were conducted as described previously. Briefly, the right hemibrain was post-fixed in phosphate-buffered 4% paraformaldehyde (pH 7.4) at 4 °C for 48 h, and then serially sectioned into 40 µm thick coronal sections using a vibratome. Sections were free-floated and incubated overnight at 4 °C with primary antibodies. To confirm the specificity of primary antibodies, control experiments were performed in which sections were incubated overnight in the absence of primary antibody (data not shown). Immunolabeled sections were imaged with a Zeiss 63× (N.A. 1.4) objective on an Axiovert 35 microscope (Zeiss, Germany). Immunolabeling was evaluated as a corrected optical density across a field of view. […]

[1] = system: proteinase K-resistant ASYN; assay: Immunohistochemical evaluation of proteinase K-resistant ASYN in brain sections, 3-month study; details: for change in proteinase K-resistant ASYN immunolabeling vs vehicle-treated transgenic mice: striatum (P < 0.0001); for proteinase K-resistant ASYN immunolabeling, mean: Line 61 tg, 3 months, adjusted P <0.0001
Excerpt: as §1, §2, §3

Line 61 transgenic mice = assay: Grip strength, Line 61 transgenic mice; details: 1 and 5 mg/kg, re-test after treatment, two-way ANOVA with repeated measures
Excerpt: A transgenic mouse model of Parkinson’s disease overexpressing human wild-type ASYN under the murine Thy-1 promoter on a mixed C57Bl/6 background was used in the present studies (commonly referred to Line 61)[49]. The Line 61 transgenic mouse model of Parkinson’s disease develops extensive accumulation of ASYN in areas relevant to Parkinson’s disease[49]–[51], neurodegeneration (as evidenced by loss of tyrosine hydroxylase[52],[53] and dopamine transporter immunoreactivity[18] in the striatum), inflammation, and both motor and non-motor functional deficits. […] The vivarium ambient room temperature was monitored daily and kept within a range of 68–72 degrees Fahrenheit. […]
Nonetheless, a baseline measurement of grip strength is always included to confirm existing deficits in Line 61 transgenic mice and to inform pseudorandomized treatment group assignment (i.e., ensuring that each treatment group started with a similar distribution of grip strength performances). […] The dependent measure, peak strength (in grams of force), was determined per trial and as an average for each animal across trials. […]

[2] = system: dopamine transporter (DAT); assay: Immunolabeling of striatal dopamine transporter (DAT), 3-month study; details: for DAT immunolabeling in dorsal striatum, mean: 3 months
Excerpt: as §1, §2
as §3, with “Briefly, the right hemibrain was post-fixed in phosphate-buffered 4% paraformaldehyde (pH 7.4) at 4 °C for 48 h, and then serially sectioned into 40 µm thick coronal sections using a vibratome. Sections were free-floated and incubated overnight at 4 °C with primary antibodies. To confirm the specificity of primary antibodies, control experiments were performed in which sections were incubated overnight in the absence of primary antibody (data not shown). Immunolabeled sections were imaged with a Zeiss 63× (N.A. 1.4) objective on an Axiovert 35 microscope (Zeiss, Germany).” left out

`CCCC[C@H](Cc1c[nH]c2ccccc12)NC(=O)c1cnc(N2CCN(C)CC2)s1` [minzasolmin] was tested, and the “change in GFAP immunolabeling vs vehicle-treated Line 61 transgenic mice” value (GFAP; 1 mg/kg) was “decreased”, the “change in GFAP immunolabeling vs vehicle-treated Line 61 transgenic mice” value (GFAP; 5 mg/kg) was “decreased” and the “effect of dose on GFAP levels, 1 vs. 5 mg/kg” value (GFAP; cortex and hippocampus) was “no statistically significant effect”. For the same molecule, the “GFAP immunolabeling, mean” value (GFAP; cortex, Line 61 tg/1 mg/kg (first group of that name), Line 61 tg/Vehicle 223.1) was 155.9, the “GFAP immunolabeling, mean” value (GFAP; cortex, Line 61 tg/1 mg/kg as printed (second group of that name), Line 61 tg/Vehicle 223.1) was 169.3 and the “GFAP immunolabeling, mean” value (GFAP; hippocampus, Line 61 tg/1 mg/kg (first group of that name), Line 61 tg/Vehicle 350.8) was 271.6. The “GFAP immunolabeling, mean” value (GFAP; hippocampus, Line 61 tg/1 mg/kg as printed (second group of that name), Line 61 tg/Vehicle 350.8) was 289.7, the “change in proteinase K-resistant ASYN immunolabeling vs vehicle-treated transgenic mice” value ([1]; 1 mg/kg, cortex, hippocampus) was “statistically significant reductions; also recorded: statistically significant decreases” and the “change in proteinase K-resistant ASYN immunolabeling vs vehicle-treated transgenic mice” value ([1]; 5 mg/kg, cortex, hippocampus) was “statistically significant reductions; also recorded: statistically significant decreases”. For the same molecule, the “effect of dose on proteinase K-resistant ASYN, 1 vs. 5 mg/kg” value ([1]; any examined region) was “no statistically significant effects”, the “proteinase K-resistant ASYN immunolabeling, mean” value ([1]; cortex, 1 mg/kg, Line 61 tg/Vehicle 242.5) was 180.6 and the “proteinase K-resistant ASYN immunolabeling, mean” value ([1]; cortex, 5 mg/kg, Line 61 tg/Vehicle 242.5) was 187.3. For the same molecule, the “proteinase K-resistant ASYN immunolabeling, mean” value ([1]; hippocampus, 1 mg/kg, Line 61 tg/Vehicle 270.1) was 176.6, the “proteinase K-resistant ASYN immunolabeling, mean” value ([1]; hippocampus, 5 mg/kg, Line 61 tg/Vehicle 270.1) was 178.3 and the “proteinase K-resistant ASYN immunolabeling, mean” value ([1]; striatum, 1 mg/kg, Line 61 tg/Vehicle 266.7) was 176.1. The “proteinase K-resistant ASYN immunolabeling, mean” value ([1]; striatum, 5 mg/kg, Line 61 tg/Vehicle 266.7) was 182.2, the “effect of chronic treatment on grip strength of Line 61 transgenic mice” value (Line 61 transgenic mice) was “no statistically significant benefits” and the “change in striatal DAT immunolabeling vs vehicle-treated ASYN transgenic controls” value ([2]; 1 mg/kg, P < 0.05) was “statistically significant increases; also recorded: statistically significant normalizations”. The “change in striatal DAT immunolabeling vs vehicle-treated ASYN transgenic controls” value ([2]; 5 mg/kg, P < 0.0001) was “statistically significant increases; also recorded: statistically significant normalizations”, the “DAT immunolabeling in dorsal striatum, mean” value ([2]; Line 61 tg/1 mg/kg (first group of that name), Line 61 tg/Vehicle 211.2, Non-tg/Vehicle 292.1, adjusted P 0.0117) was 255.3 and the “DAT immunolabeling in dorsal striatum, mean” value ([2]; Line 61 tg/1 mg/kg as printed (second group of that name), Line 61 tg/Vehicle 211.2, adjusted P <0.0001) was 280.1. For the same molecule, the “dose effect on striatal DAT levels, 5 mg/kg compared to 1 mg/kg (towards a greater increase)” value ([2]; P = 0.0754, unpaired two tailed t test) was “statistical trend”.
